From patent publication US20080311589A1, “METHOD OF HIGH-THROUGHPUT SCREENING OF MOLECULES AND COMPOUNDS FOR THEIR EFFECTS ON BIOLOGICAL AND CHEMICAL PROCESSES” (priority 1999, published 2008)
“Also recorded” adds a separate entry of the source.

Key:
[1] = tested on: A549 human lung carcinoma cells; test: phosphonucleolin cytoblot, suppressors of G2-arresting agents; type: cell-based; settings: for prevention of nocodazole mitotic arrest: simultaneous addition with 250 nM nocodazole, 14 μM ICRF-193, 20 μM roscovitine
Protocol: (§1) FIG. 11. Cytoblots can be used to screen for small molecule suppressors of anti-proliferative agents using the presence of phosphonucleolin, and for small molecules that induce exit from mitosis using the absence of phosphonucleolin. […] A549 human lung carcinoma cells were seeded at a density of 4000 cells in 40 μL of DMEM+ in each well of an opaque 384-well plate and incubated for 24 hours at 37° C. with 5% CO2. […] Cells were then incubated for 18 hours at 37° C. with 5% CO2 and a phosphonucleolin cytoblot was performed. (c) HeLaS3 cells were seeded at a density of 4000 cells in 40 μL of DMEM+ in each well of an opaque 384-well plate and incubated for 24 hours at 37° C. with 5% CO2. Cells were either left untreated or treated with 554 nM nocodazole for 14 hours to arrest cells in mitosis. Roscovitine was then added to the final concentrations indicated in a final volume of 50 μL and cells were incubated for 4 hours at 37° C. with 5% CO2. Finally, BrdU was added to a final concentration of 10 μM to those wells that were assayed for BrdU incorporation, and the cells incubated for an additional 6 hours at 37° C. with 5% CO2. BrdU and phosphonucleolin cytoblots were performed. […] HeLa cells were seeded at a density of 4000 cells per well in 40 μL of DMEM+ in each well of an opaque 384 well plate and incubated overnight at 37° C. with 5% CO2. Cells were then treated with either an equivalent amount of DMSO or nocodazole to a final concentration of 415 nM and the cells incubated for an additional 14 hours at 37° C. with 5% CO2. Roscovitine was then added to the final concentrations indicated and final volume of 50 μL and cells incubated for 4 hours 37° C. with 5% CO2. Finally, BrdU was added to a final concentration of 10 μM to those wells the be assayed for BrdU incorporation and the cells incubated for an additional 6 hours at 37° C. with 5% CO2. BrdU and TG-3 cytoblots were performed (see Protocols). Wells are shown magnified 4×. […] A549 human lung carcinoma cells were seeded at a density of 4000 cells in 40 uL of DMEM+ in each well of an opaque 384 well plate and incubated for 24 hours at 37° C. with 5% CO2. […] Cells were then incubated for 18 hours at 37° C. with 5% CO2 and a TG-3 cytoblot performed (see Protocol).
These purine analogs are known to be non-specific competitive inhibitors of 5′-adenosine triphosphate binding and therefore are likely to inhibit a wide range of kinases in the cell.

HeLaS3 cells = test: BrdU and phosphonucleolin cytoblots in nocodazole-arrested HeLa cells; type: cell-based, human
Protocol: as §1
It should also be possible to find small molecules that induce exit from mitosis, resulting in a reduction in phosphonucleolin levels. As the nocodazole-induced arrest of cells in mitosis requires cyclin-dependent kinase (CDK) activity for the activation of the spindle assembly checkpoint, inhibition of CDK activity should suppress nocodazole-induced mitotic arrest (FIG. 11a). […]

[2] = tested on: Mv1Lu mink lung epithelial cells; test: 384 well anti-BrdU cytoblot; type: cell-based; settings: 384-well plate; antiproliferative agents 24 hours, then 10 μM BrdU 16 hours (FIG. 2)
Description: FIG. 1. An immunodetection assay for DNA synthesis in high density arrays of mammalian cells. (a) Cartoon depiction of an anti-BrdU cytoblot. The thymine analog 5-bromodeoxyuridine (BrdU) is incorporated into the DNA of cells that are actively replicating their DNA. The cells are in the well, and BrdU is detected with a two step antibody binding procedure. The second antibody is conjugated to the enzyme horseradish peroxidase. In the presence of the chemiluminescent substrate luminol as well as hydrogen peroxide, light of wavelength 428 nm is generated. The light emission can be detected by exposing the plate to film. (b) A cytoblot can detect TGF-β's ability to prevent BrdU incorporation in mink lung epithelial cells. 2000 Mv1Lu mink lung epithelial cells were seeded in each well of a white, opaque 384 well plate. The cells were seeded in the indicated concentrations of TGF-β in 50 μL of DMEM with 1% fetal bovine serum (FBS), 100 units/mL penicillin G sodium, 100 μg/mL streptomycin sulfate and 100 μM each of the amino acids alanine, aspartic acid, glutamine, glycine, asparagine and proline (referred to throughout as 1% mink medium) and allowed to incubate at 37° C. with 5% CO2. After 16 hours, 5.5 μL of 100 μM BrdU in 1% mink medium was added to each well, for a final concentration of 10 μM BrdU. The cells were incubated at 37° C. with 5% CO2 for an additional 16 hours and then an anti-BrdU cytoblot protocol was performed (see protocol). Wells shown are magnified 4×.
FIG. 2. A cytoblot can detect the ability of numerous antiproliferative agents to inhibit BrdU incorporation. 2000 Mv1Lu mink lung epithelial cells were seeded in each well of a white, opaque 384 well plate. The cells were seeded in 40 μL of 1% mink media and immediately 40 μL of 2× stocks of the reagents shown was added to each well and the cells were allowed to incubate at 37° C. with 5% CO2. After 24 hours, 9 μL of 100 μM BrdU in 1% mink medium was added to each well, for a final concentration of 10 μM BrdU. The cells were incubated at 37° C. with 5% CO2 for an additional 16 hours and then an anti-BrdU cytoblot protocol was performed (see protocol). Wells shown are magnified 2.5×.
The ability of the cytoblot assay to detect changes in DNA synthesis was tested by measuring the incorporation of 5-bromodeoxyuridine (BrdU, Sigma Corporation, St. Louis, Mo., Cat.# B9285) into DNA in the presence or absence of the anti-mitogen transforming growth factor β (TGF-β). Mink lung cells, which are responsive to TGF-β, were seeded into each well of an opaque, white 384-well plate. The cells were subsequently treated with varying concentrations of TGF-β for 16 hours and then with 10 μM BrdU for 16 hours. […] The following protocols provide experimental detail. […]

[3] = tested on: mink lung epithelial cells; test: BrdU cytoblot assay for S-phase progression; type: cell-based
Description: BRDU CYTOBLOT ASSAY: The BrdU cytoblot assay for S-phase progression was described previously by Stockwell et al. (Chem. Biol. 6:71, 1999; see also, U.S. Patent Application Ser. No. 60/094,305, incorporated herein by reference).
Compounds that mimic TGFβ activity would be expected to be capable of inducing cell cycle arrest or apoptosis, and in particular to block DNA replication, in responding cells. We therefore used an S-phase progression cytoblot assay to test whether our compounds could inhibit 5-bromodeoxyuridine (BrdU) incorporation into mink epithelial cells. […] Both compounds were therefore classified as true TGFβ mimics.

[4] = tested on: hyperacetylated histone H4; test: 384 well anti-acetylated histone H4 cytoblot; type: cell-based, human; settings: A549 cells; 300 nM trichostatin A, 100 nM trapoxin, 24 hours
Protocol: FIG. 5. An immunodetection assay for the accumulation of hyperacetylated histone H4 in high density arrays of mammalian cells. A549 human lung carcinoma cells were seeded at a density of 4000 cells in 40 μL of DMEM+ in each well of an opaque 384 well plate and incubated overnight at 37° C. with 5% CO2. Cells were either untreated, washed once and treated with 0.5% serum, 80 pM TGF-β, 300 nM trichostatin A, 100 nM trapoxin or 250 nM nocodazole and incubated for 24 hours at 37° C. with 5% CO2 in a final volume of 50 μL. A cytoblot was performed (see Protocol) and the presence of the hyperacetylated form of histone H4 was detected using a two step antibody binding procedure using an anti-acetylated H4 antibody and a secondary antibody conjugated to the enzyme horseradish peroxidase. Wells are shown magnified 25×.
Any post-translational modification that can be recognized by an antibody (or ligand) may be used in a cytoblot screen. […] In addition, antibodies against the phosphorylated form of nucleolin (FIG. 6a) or histone H3 (FIG. 6b) were used to detect the presence of phosphonucleolin or phosphohistone H3 respectively, both of which server as biochemical markers of the mitotic state of cells (Anderson et al. Experimental Cell Research 238: 498-502 1998; Vincent et al. J. Cell. Biol. 132:413-425. 1996)). The following protocol provides experimental detail. […]

Compound: CC[C@H](CO)Nc1nc(NCc2ccccc2)c2ncn(C(C)C)c2n1 [roscovitine]
- prevention of nocodazole mitotic arrest [1]: prevented this mitotic arrest
- exit from nocodazole-induced arrest (disappearance of phosphonucleolin) (HeLaS3 cells; nocodazole 14 hours, then roscovitine): cells exited from the nocodazole-induced arrest; also recorded: suppresses only the accumulation of phosphonucleolin
- BrdU incorporation after roscovitine (HeLaS3 cells; nocodazole 14 hours, then roscovitine, 10 μM BrdU 6 hours): did not begin to incorporate BrdU

Compound: COC(=O)Nc1nc2ccc(C(=O)c3cccs3)cc2[nH]1 [nocodazole]
- BrdU incorporation [2]: effectively prevent BrdU incorporation
- mitotic arrest (phosphonucleolin) ([1]; 250 nM nocodazole, 18 hours): arrested in mitosis
- accumulation of phosphonucleolin (HeLaS3 cells; HeLa cells, nocodazole 415 nM): induces the accumulation of phosphonucleolin
- incorporation of BrdU (HeLaS3 cells; HeLa cells, nocodazole 415 nM): prevents the incorporation of BrdU

Compound: Nc1ncc2[nH]cnc2n1 [2-aminopurine]
- suppression of ICRF-193-induced G2 arrest ([1]; 1 mM 2-aminopurine or 2 mM caffeine with ICRF-193 and 250 nM nocodazole, 18 hours): prevented the arrest in response to ICRF-193; also recorded: suppress a DNA damage-independent topoisomerase inhibitor-induced G2-checkpoint arrest

Compound: NC(=O)NO [hydroxyurea]
- BrdU incorporation [2]: effectively prevent BrdU incorporation

Compound: ICRF-193
- prevention of nocodazole mitotic arrest [1]: prevented this mitotic arrest

Compound: CuCl2 [Cu^2+]
- BrdU incorporation [3]: inhibition of BrdU incorporation

Compound: CC(/C=C/C(=O)NO)=C\[C@@H](C)C(=O)c1ccc(N(C)C)cc1 [trichostatin, trichostatin A]
- acetylation of histone H4 [4]: increase in the acetylation of histone H4
